HELM strings list units from the 5' end as sugar, base in round brackets, then linkage (d deoxyribose, r ribose, m 2'-O-methyl, p phosphodiester). Strings are as the collection lists them; they lack the last nucleoside at the 3' end of the tested compound. [moe] = 2'-O-(2-methoxyethyl) (MOE); [sp] = phosphorothioate linkage; [m5C] = 5-methylcytosine
Molecular target: UBE3A-ATS
Test: mouse, dose not given
Conditions: ASO

Substance	3 h FOB score [score 0-7]
RNA1{[moe](T)[sp].[moe](A)p.[moe](G)p.[moe](T)p.[moe](T)p.d(T)[sp].d([m5C])[sp].d(A)[sp].d([m5C])[sp].d([m5C])[sp].d(G)[sp].d(A)[sp].d(A)[sp].d(A)[sp].d(G)[sp].[moe](T)p.[moe](A)p.[moe]([m5C])[sp].[moe](A)}$$$$ (last 3' nucleoside missing)	2.5
RNA1{[moe](T)[sp].[moe](A)p.[moe](G)p.[moe](T)p.[moe]([m5C])p.d(T)[sp].d(A)[sp].d(A)[sp].d(G)[sp].d(G)[sp].d([m5C])[sp].d(A)[sp].d(G)[sp].d(T)[sp].d([m5C])[sp].[moe](A)p.[moe](G)p.[moe](G)[sp].[moe](G)}$$$$ (last 3' nucleoside missing)	6
RNA1{[moe](T)[sp].[moe](A)p.[moe](T)p.[moe](A)p.[moe](G)p.d(G)[sp].d(G)[sp].d(T)[sp].d(G)[sp].d(G)[sp].d(T)[sp].d(T)[sp].d(G)[sp].d(G)[sp].d(T)[sp].[moe](T)p.[moe]([m5C])p.[moe](A)[sp].[moe](A)}$$$$ (last 3' nucleoside missing)	6
RNA1{[moe](T)[sp].[moe](A)p.[moe](T)p.[moe](G)p.[moe](T)p.d(A)[sp].d(G)[sp].d([m5C])[sp].d(T)[sp].d([m5C])[sp].d(A)[sp].d(G)[sp].d([m5C])[sp].d(T)[sp].d([m5C])[sp].[moe](A)p.[moe](A)p.[moe](T)[sp].[moe](G)}$$$$ (last 3' nucleoside missing)	1
RNA1{[moe](T)[sp].[moe](A)p.[moe](T)p.[moe](T)p.[moe](G)p.[moe](G)p.d(T)[sp].d([m5C])[sp].d(A)[sp].d(T)[sp].d([m5C])[sp].d(T)[sp].d([m5C])[sp].d(G)[sp].d(G)[sp].d(G)[sp].[moe](T)p.[moe](A)[sp].[moe](T)}$$$$ (last 3' nucleoside missing)	4
RNA1{[moe](T)[sp].[moe](A)p.[moe](T)p.[moe](T)p.[moe](G)p.d(G)[sp].d(T)[sp].d([m5C])[sp].d(A)[sp].d(T)[sp].d([m5C])[sp].d(T)[sp].d([m5C])[sp].d(G)[sp].d(G)[sp].[moe](G)p.[moe](T)p.[moe](A)[sp].[moe](T)}$$$$ (last 3' nucleoside missing)	3.3
RNA1{[moe](T)[sp].[moe](A)p.[moe](T)p.[moe](T)p.[moe](G)p.d([m5C])[sp].d([m5C])[sp].d(T)[sp].d(T)[sp].d([m5C])[sp].d(A)[sp].d([m5C])[sp].d(T)[sp].d(G)[sp].d([m5C])[sp].[moe](T)p.[moe](G)p.[moe]([m5C])[sp].[moe]([m5C])}$$$$ (last 3' nucleoside missing)	3.2
RNA1{[moe](T)[sp].[moe](A)p.[moe](T)p.[moe](T)p.d(G)[sp].d(G)[sp].d(T)[sp].d([m5C])[sp].d(A)[sp].d(T)[sp].d([m5C])[sp].d(T)[sp].d([m5C])[sp].d(G)[sp].[moe](G)p.[moe](G)p.[moe](T)p.[moe](A)[sp].[moe](T)}$$$$ (last 3' nucleoside missing)	4
RNA1{[moe](T)[sp].[moe](G)[sp].[moe]([m5C])[sp].[moe]([m5C])[sp].[moe](A)[sp].d(T)[sp].d([m5C])[sp].d(T)[sp].d(T)[sp].d([m5C])[sp].d(A)[sp].d(A)[sp].d(G)[sp].d(A)[sp].d([m5C])[sp].[moe](T)[sp].[moe](A)[sp].[moe](A)[sp].[moe](G)}$$$$ (last 3' nucleoside missing)	6.8
RNA1{[moe](T)[sp].[moe](G)p.[moe](A)p.[moe](G)[sp].d([m5C])[sp].d(T)[sp].d(A)[sp].d(T)[sp].d([m5C])[sp].d(T)[sp].d(G)[sp].d(T)[sp].[moe](A)p.[moe]([m5C])p.[moe](A)p.[moe](A)[sp].[moe](A)}$$$$ (last 3' nucleoside missing)	3
RNA1{[moe](T)[sp].[moe](G)p.[moe](A)p.[moe](G)p.[moe]([m5C])[sp].d(T)[sp].d(A)[sp].d(T)[sp].d([m5C])[sp].d(T)[sp].d(G)[sp].d(T)[sp].d(A)[sp].[moe]([m5C])p.[moe](A)p.[moe](A)[sp].[moe](A)}$$$$ (last 3' nucleoside missing)	4.7
RNA1{[moe](T)[sp].[moe](G)p.[moe](A)p.[moe](G)p.[moe]([m5C])p.[moe](T)[sp].d(A)[sp].d(T)[sp].d([m5C])[sp].d(T)[sp].d(G)[sp].d(T)[sp].d(A)[sp].d([m5C])[sp].[moe](A)p.[moe](A)[sp].[moe](A)}$$$$ (last 3' nucleoside missing)	5
RNA1{[moe](T)[sp].[moe](G)p.[moe](A)p.[moe](G)p.[moe]([m5C])p.[moe](T)p.d(A)[sp].d(T)[sp].d([m5C])[sp].d(T)[sp].d(G)[sp].d(T)[sp].d(A)[sp].d([m5C])[sp].d(A)[sp].d(A)[sp].[moe](A)p.[moe](A)[sp].[moe](T)}$$$$ (last 3' nucleoside missing)	5.3
RNA1{[moe](T)[sp].[moe](G)p.[moe](A)p.[moe](G)p.[moe]([m5C])p.d(T)[sp].d(A)[sp].d(T)[sp].d([m5C])[sp].d(T)[sp].d(G)[sp].d(T)[sp].d(A)[sp].d([m5C])[sp].d(A)[sp].[moe](A)p.[moe](A)p.[moe](A)[sp].[moe](T)}$$$$ (last 3' nucleoside missing)	6.2
RNA1{[moe](T)[sp].[moe](G)p.[moe](A)p.[moe](G)p.d([m5C])[sp].d(T)[sp].d(A)[sp].d(T)[sp].d([m5C])[sp].d(T)[sp].d(G)[sp].d(T)[sp].d(A)[sp].d([m5C])[sp].[moe](A)p.[moe](A)p.[moe](A)p.[moe](A)[sp].[moe](T)}$$$$ (last 3' nucleoside missing)	5.5
RNA1{[moe](T)[sp].[moe](G)p.[moe](A)p.[moe](T)[sp].d([m5C])[sp].d(A)[sp].d([m5C])[sp].d(A)[sp].d(T)[sp].d(T)[sp].d(A)[sp].d([m5C])[sp].[moe]([m5C])p.[moe]([m5C])p.[moe](A)p.[moe](T)[sp].[moe]([m5C])}$$$$ (last 3' nucleoside missing)	0
RNA1{[moe](T)[sp].[moe](G)p.[moe](A)p.[moe](T)p.[moe](A)p.d(G)[sp].d(A)[sp].d(T)[sp].d(A)[sp].d([m5C])[sp].d(T)[sp].d(T)[sp].d(G)[sp].d(T)[sp].d(A)[sp].[moe](T)p.[moe](T)p.[moe](A)[sp].[moe](G)}$$$$ (last 3' nucleoside missing)	3.8
RNA1{[moe](T)[sp].[moe](G)p.[moe](A)p.[moe](T)p.[moe]([m5C])[sp].d(A)[sp].d([m5C])[sp].d(A)[sp].d(T)[sp].d(T)[sp].d(A)[sp].d([m5C])[sp].d([m5C])[sp].[moe]([m5C])p.[moe](A)p.[moe](T)[sp].[moe]([m5C])}$$$$ (last 3' nucleoside missing)	1
RNA1{[moe](T)[sp].[moe](G)p.[moe](A)p.[moe](T)p.[moe]([m5C])p.[moe](A)[sp].d([m5C])[sp].d(A)[sp].d(T)[sp].d(T)[sp].d(A)[sp].d([m5C])[sp].d([m5C])[sp].d([m5C])[sp].[moe](A)p.[moe](T)[sp].[moe]([m5C])}$$$$ (last 3' nucleoside missing)	0
RNA1{[moe](T)[sp].[moe](G)p.[moe](A)p.[moe](T)p.[moe]([m5C])p.[moe](A)p.d([m5C])[sp].d(A)[sp].d(T)[sp].d(T)[sp].d(A)[sp].d([m5C])[sp].d([m5C])[sp].d([m5C])[sp].d(A)[sp].d(T)[sp].[moe]([m5C])p.[moe]([m5C])[sp].[moe](G)}$$$$ (last 3' nucleoside missing)	0
RNA1{[moe](T)[sp].[moe](G)p.[moe](A)p.[moe](T)p.[moe]([m5C])p.d(A)[sp].d([m5C])[sp].d(A)[sp].d(T)[sp].d(T)[sp].d(A)[sp].d([m5C])[sp].d([m5C])[sp].d([m5C])[sp].d(A)[sp].[moe](T)p.[moe]([m5C])p.[moe]([m5C])[sp].[moe](G)}$$$$ (last 3' nucleoside missing)	0
RNA1{[moe](T)[sp].[moe](G)p.[moe](A)p.[moe](T)p.[moe]([m5C])p.d(T)[sp].d(A)[sp].d(T)[sp].d(T)[sp].d(A)[sp].d(T)[sp].d(G)[sp].d(A)[sp].d(G)[sp].d(G)[sp].[moe](G)p.[moe]([m5C])p.[moe](A)[sp].[moe](T)}$$$$ (last 3' nucleoside missing)	2
RNA1{[moe](T)[sp].[moe](G)p.[moe](A)p.[moe](T)p.d([m5C])[sp].d(A)[sp].d([m5C])[sp].d(A)[sp].d(T)[sp].d(T)[sp].d(A)[sp].d([m5C])[sp].d([m5C])[sp].d([m5C])[sp].[moe](A)p.[moe](T)p.[moe]([m5C])p.[moe]([m5C])[sp].[moe](G)}$$$$ (last 3' nucleoside missing)	1
RNA1{[moe](T)[sp].[moe](G)p.[moe](G)p.[moe](G)p.[moe](T)p.d(T)[sp].d(A)[sp].d([m5C])[sp].d(T)[sp].d(T)[sp].d(T)[sp].d([m5C])[sp].d([m5C])[sp].d(A)[sp].d(A)[sp].[moe](T)p.[moe](A)p.[moe](G)[sp].[moe](A)}$$$$ (last 3' nucleoside missing)	5.7
RNA1{[moe](T)[sp].[moe](G)p.[moe](G)p.[moe](T)[sp].d([m5C])[sp].d(A)[sp].d(T)[sp].d([m5C])[sp].d(T)[sp].d([m5C])[sp].d(G)[sp].d(G)[sp].[moe](G)p.[moe](T)p.[moe](A)p.[moe](T)[sp].[moe](A)}$$$$ (last 3' nucleoside missing)	4.7
RNA1{[moe](T)[sp].[moe](G)p.[moe](G)p.[moe](T)p.[moe](A)p.d(T)[sp].d(T)[sp].d(G)[sp].d(A)[sp].d([m5C])[sp].d(A)[sp].d([m5C])[sp].d([m5C])[sp].d(T)[sp].d([m5C])[sp].[moe]([m5C])p.[moe](A)p.[moe](A)[sp].[moe]([m5C])}$$$$ (last 3' nucleoside missing)	0.3
RNA1{[moe](T)[sp].[moe](G)p.[moe](G)p.[moe](T)p.[moe]([m5C])[sp].d(A)[sp].d(T)[sp].d([m5C])[sp].d(T)[sp].d([m5C])[sp].d(G)[sp].d(G)[sp].d(G)[sp].[moe](T)p.[moe](A)p.[moe](T)[sp].[moe](A)}$$$$ (last 3' nucleoside missing)	6.3

Reference: the OligoGym collection
